Source: patent publication US9321735B2, “Insecticidal triazines and pyrimidines” (Vestaron Corporation, priority 2010, dated 2016)

Tested on: beet army worm (Spodoptera exigua)
Assay: Insecticidal test for beet armyworm (diet surface treatment, larval mortality)
Assay type: in vivo
Conditions: 100 μg/cm^2 on diet surface; first instar larvae, 32 insects per treatment; observations 24, 48 and 96 hours after treatment
Experimental: The compounds identified in Table 8 were prepared according to the previous methods and were tested against beet armyworm and corn earworm as follows:
Insecticidal Test for Beet Armyworm (Spodoptera Exigua).
To prepare the test solution, the test compound was Formulated at 3499 ppm in solution as 5 mg compound/1.429 mL of 9 parts acetone: 1 part deionized H2O and vortexed to homogenize. 50 μL of the 3499 ppm (equivalent to 100 μg/cm^2 dose on diet surface area) test solution was pipetted upon the surface of 1 mL of solidified cool Southland Products Incorporated Beet Armyworm Diet (201 Stuart Island Road Lake Village, Ark. 71653) using an Eppendorf Repeater Plus with a 1 mL pipette tip. All pipetting of treatments was done in a Labconco Hood. Thirty minutes were allowed for the acetone to evaporate leaving a dose of 100 μg/cm^2 on the surface of the artificial diet. Two 24 hour old first instar Beet Armyworm(Spodoptera Exigua) larvae were placed in each well of the 128 well Bio-BA 128 Bioassay trays (CD International, Pitman, N.J., 08071, USA) using a #0 fine camel hair paint brush. Bioassay trays were sectioned into treatment groups of 8 with 16 replicates per treatment group (32 insects per treatment). […] The number of insects dead were counted out of the 32 insects total per treatment and the results are given in a table as a percent mortality at a dose of 100 μg/cm^2. […]

In the case of `Fc1cccc(Cl)c1-c1nc(NN=Cc2ccc(C(F)(F)F)cc2)nc(Nc2ccc(Cl)nc2)n1` [Example 51, 4-(2-chloro-6-fluorophenyl)-N-(6-chloropyridin-3-yl)-6-(2-(4-(trifluoromethyl)benzylidene)hydrazinyl)-1,3,5-triazin-2-amine], the Mortality was “A (A=76-100% mortality)”.
